Results on two compounds are retold here after US6987122B2, “2-(1H-indol-3-yl)-2-oxo-acetic acid amides with antitumor activity” (Novuspharma S.p.A., priority 2000, dated 2006).

Structures are written as SMILES.

What is called melting point is the temperature, or range, at which the solid turns liquid. Regarding `O=C(Nc1nncs1)C(=O)c1cn(Cc2ccc(F)cc2)c2ccccc12`, the melting point lay in the range of 218 to 220 °C.

As for `O=C(Nc1nccs1)C(=O)c1cn(Cc2ccc(F)cc2)c2ccccc12`, the melting point lay within 233 to 237 °C.
